Assay: xn = mol fraction of the nth substance listed

CCCCCCCCCCC + CCCCCCCCO
viscosity [mPa·s], 100 kPa
Conditions	x1 = 0.0994	x1 = 0.2003	x1 = 0.2994	x1 = 0.3986	x1 = 0.498	x1 = 0.5983	x1 = 0.6948	x1 = 0.7982	x1 = 0.899
293.15 K	6.831	5.141	3.839	3.004	2.374	1.965	1.669	1.463	1.271
298.15 K	5.749	4.369	3.31	2.622	2.109	1.77	1.542	1.349	1.164
303.15 K	4.874	3.746	2.878	2.322	1.929	1.622	1.402	1.233	1.071
308.15 K	4.161	3.23	2.519	2.063	1.725	1.473	1.281	1.132	0.987
313.15 K	3.577	2.805	2.223	1.847	1.559	1.341	1.175	1.043	0.915
318.15 K	3.091	2.455	1.978	1.67	1.413	1.224	1.079	0.963	0.848
323.15 K	2.694	2.167	1.774	1.507	1.286	1.123	0.996	0.892	0.792

CN1CCC[C@H]1c1cccnc1 + CC(=O)c1ccccc1
viscosity [mPa·s], 101 kPa
Conditions	x1 = 0.1332	x1 = 0.2426	x1 = 0.3782	x1 = 0.4934	x1 = 0.613	x1 = 0.7431	x1 = 0.8402
298.15 K	1.872	2.198	2.537	2.947	3.238	3.627	3.736
323.15 K	1.162	1.288	1.453	1.551	1.743	1.912	1.962

CN1CCC[C@H]1c1cccnc1 + CCO
viscosity [mPa·s], 101.33 kPa
Conditions	298.15 K	323.15 K
x1 = 0.0501	1.468	0.8557
x1 = 0.1104	1.756	1.03
x1 = 0.1524	1.941	1.123
x1 = 0.2923	2.477	1.376
x1 = 0.3425	2.652	1.482
x1 = 0.4474	3.004	1.703
x1 = 0.4676	3.008	1.764
x1 = 0.5898	3.224	1.784
x1 = 0.6839	3.497	1.88
x1 = 0.7725	3.564	1.961
x1 = 0.8957	3.801	2.026
x1 = 0.8976	3.803	2.026

OCCCO + O
Conditions	viscosity [mPa·s]
293.15 K, 101.33 kPa, x1 = 0.1597	5.035
298.15 K, 101 kPa, x1 = 0.0743	1.975
298.15 K, 101 kPa, x1 = 0.1661	4.203
298.15 K, 101 kPa, x1 = 0.2338	6.223
298.15 K, 101 kPa, x1 = 0.3007	8.667
298.15 K, 101 kPa, x1 = 0.3965	12.43
298.15 K, 101 kPa, x1 = 0.4726	15.67
298.15 K, 101 kPa, x1 = 0.5649	19.7
298.15 K, 101 kPa, x1 = 0.6713	24.72
298.15 K, 101 kPa, x1 = 0.7492	28.53
298.15 K, 101 kPa, x1 = 0.8137	32
298.15 K, 101 kPa, x1 = 0.9572	39.94
298.15 K, 101.3 kPa, x2 = 0.0622	37.15
308.15 K, 101 kPa, x1 = 0.095	1.65
308.15 K, 101 kPa, x1 = 0.1968	4.202
308.15 K, 101 kPa, x1 = 0.3019	6.937
308.15 K, 101 kPa, x1 = 0.4108	9.362
308.15 K, 101 kPa, x1 = 0.495	11.66
308.15 K, 101 kPa, x1 = 0.6009	14.63
308.15 K, 101 kPa, x1 = 0.692	17.5
308.15 K, 101 kPa, x1 = 0.7938	20.41
308.15 K, 101 kPa, x1 = 0.9232	24.43
313.15 K, 101.33 kPa, x1 = 0.5449	11.05
323.15 K, 101.33 kPa, x1 = 0.7523	11.15

OCCCO + CC(C)=O
viscosity [mPa·s], 100 kPa
Conditions	x2 = 0.1008	x2 = 0.1914	x2 = 0.3021	x2 = 0.4009	x2 = 0.51	x2 = 0.6004	x2 = 0.7	x2 = 0.7983	x2 = 0.9002
293.15 K	29.2	17.28	9.162	5.229	2.942	1.764	1.321	1.18	1.04
298.15 K	23.55	14.22	7.721	4.496	2.567	1.583	1.14	1.038	0.9174
303.15 K	19.21	11.82	6.554	3.894	2.257	1.428	1.031	0.9173	0.8122
308.15 K	15.86	9.922	5.609	3.395	1.997	1.293	0.9331	0.8138	0.722
313.15 K	13.22	8.416	4.85	2.979	1.78	1.175	0.8442	0.7248	0.6442
318.15 K	11.13	7.191	4.215	2.633	1.597	1.07	0.7632	0.6479	0.5768
323.15 K	9.46	6.198	3.679	2.343	1.433	0.9737	0.6946	0.5811	0.5183

OCCCO + CC#N
viscosity [mPa·s], 100 kPa
Conditions	x2 = 0.1027	x2 = 0.2001	x2 = 0.3048	x2 = 0.4057	x2 = 0.5001	x2 = 0.6001	x2 = 0.6993	x2 = 0.8002	x2 = 0.8956
293.15 K	31.4	19.6	11.4	6.84	4.12	2.59	1.59	0.92	0.58
298.15 K	24.7	14.5	8.12	4.69	2.89	1.91	1.23	0.73	0.47
303.15 K	19.4	11.2	5.78	3.33	2.21	1.37	0.89	0.58	0.39

CCCCCCCCCCC + CCCCCCCCCCCC
298.15 K, 101.33 kPa
Conditions	viscosity [mPa·s]
x1 = 0.106	1.314
x1 = 0.2057	1.297
x1 = 0.3093	1.253
x1 = 0.4136	1.236
x1 = 0.5553	1.196
x1 = 0.6095	1.175
x1 = 0.7174	1.143
x1 = 0.8145	1.126
x1 = 0.9084	1.11

[I-].[Rb+] + O
310.15 K, 101 kPa
Conditions	viscosity [mPa·s]
x1 = 0.000182	0.6811
x1 = 0.000907	0.69
x1 = 0.001816	0.7025
x1 = 0.002695	0.7138
x1 = 0.003679	0.7268
x1 = 0.005197	0.7469
x1 = 0.005988	0.7573
